Test: Binding affinity against sigma receptor in bovine cerebellum using 2.0 nM [3H]haloperidol in the presence of 25 nM unlabeled spiperone

Question: With O=C(CCN1CC=C(c2ccc(Cl)cc2)CC1)c1ccccc1Cl [1-(2-Chloro-phenyl)-3-[4-(4-chloro-phenyl)-3,6-dihydro-2H-pyridin-1-yl]-propan-1-one] as the compound, how does the IC50 read?
Answer: Its IC50 is 105 nM.
